# Source: publication PMC11881437 (Molecular Medicine, 2025)
# Experiments:
# HCT116 cells = assay: Annexin V/PI flow cytometry (apoptosis); assay type: cell-based, human; conditions: HCT116, 48 h, IC50 doses; untreated 7.9%
# Procedure: Percentage of apoptotic cells were detected by Annexin V and propidium Iodide (PI) staining by flow cytometry analysis according to the protocols provided by manufacturer of the kit (Invitrogen, USA). In brief, cells were washed with PBS, suspended in binding buffer followed by incubation with Annexin V and PI. Then, the cells were analysed by using a flow cytometer (BD LSRFortessaTM X-20).
# [1] = tested on: CSC enriched spheres (CES) derived from HCT116 cells; assay: Tumorosphere (CES) diameter and number; assay type: cell-based, human; conditions: 24 h, 5FU vs control, Orientin and combination vs 5FU
# Procedure: (§1) HCT116 CRC cells were grown in ultra-low attachment plate in 3dGRO™ Spheroid Medium (Sigma-Aldrich, USA) for 7 days. Spheroids enriched with CSCs were considered as CSC enriched spheres (CESs) or commonly referred as tumorospheres. After 7 days, tumorospheres were subjected to different treatments for 24 h, as per experimental protocol. Media of tumorospheres of all the treatment groups were collected, centrifuged to remove the cell debris and suspended spheres, supernatants were collected and vacuum concentrated. These supernatants were referred as conditioned medium (CM) and were stored at − 20 °C until use.
# [2] = tested on: CT26 cell induced solid tumor; assay: CT26 syngeneic colorectal tumor model; assay type: in vivo, BALB/c mice; conditions: for tumor volume: 10 days, Orientin 5 mg/kg b.w/day i.v., 5FU 5 mg/kg b.w i.v. alternate day; for tumor volume / survival (Kaplan Meier): vs control; for tumor tissue histopathology: H&E; for number of blood vessels in tumor tissue: H&E sections; for CD44+/CD133+ cells in tumor tissue / HIF1α and VEGFA expression in tumor: immunofluorescence; for survival (Kaplan Meier): tumor bearing mice
# Procedure: To set up therapeutic in vivo model, CT26 cells (2 × 10^6 cells/animal), syngeneic to BALB/c mice were injected subcutaneously to the right hind limb of the each animal. Palpable tumor was formed after 10 days. […] Six mice from each group were sacrificed on day 11 and the others were left for performing survivability assay using Kaplan–Meier method (Hajra et al. [2018a]).
# (§2) Various organs and solid tumors collected after sacrificing the mice were embedded into paraffin after 10% neutral buffered formalin fixation. 4 μm sections were prepared and used for histopathological study. Standard Hematoxylin and Eosin (H&E) staining protocol was used and sections were visualized under light microscope (DM 1000, Leica, Germany) (Hajra et al. [2018a]).
# Immunofluorescence assay was carried out as described previously (Shimizu et al. [2023]). Tissue sections were blocked with 3% BSA and incubated with primary antibodies like HIF1α, VEGFA, CD44 (Thermo Fisher Scientific, USA) and CD133 (Abcam, USA) at room temperature for 2 h. Alexa fluor 488 and Alexa fluor 594 tagged secondary (Thermo Fisher Scientific, USA) antibodies were added to all the tissue sections for 1 h followed by DAPI staining and images were visualized under fluorescence microscope (Olympus BX53, Japan).
# [3] = tested on: chick chorioallantoic membrane; assay: Chick chorioallantoic membrane (CAM) assay with conditioned medium of CES; conditions: CM of treated CES, day 4 vs day 1
# Procedure: HCT116 CRC cells were grown in ultra-low attachment plate in 3dGRO™ Spheroid Medium (Sigma-Aldrich, USA) for 7 days. Spheroids enriched with CSCs were considered as CSC enriched spheres (CESs) or commonly referred as tumorospheres. After 7 days, tumorospheres were subjected to different treatments for 24 h, as per experimental protocol. Media of tumorospheres of all the treatment groups were collected, centrifuged to remove the cell debris and suspended spheres, supernatants were collected and vacuum concentrated. These supernatants were referred as conditioned medium (CM) and were stored at − 20 °C until use. To investigate the role of CSC on angiogenesis, a modified chick chorioallantoic membrane assay was carried out. Briefly, 100 µl CM of treated and untreated spheres were mixed with 1.5 mg/ml type I collagen (Gibco, USA). 10 µl of the mixture were loaded on the piece of 13 mm Thermanox discs (Nunc, Denmark) and permitted to get polymerize. The disc was then applied to the chorioallantoic membrane of a 4 days-old embryo. After 72 h of incubation, the area around the loaded disc was photographed with a digital camera, and the numbers of newly formed vessels were counted by two observers in a double-blind manner (Min et al. [2004]).
# HIF1α, VEGFA, NF-ĸB = assay: Western blot of HIF1α, VEGFA and NF-ĸB in CES; assay type: cell-based, human; conditions: 24 h
# Procedure: Cells were incubated with Brefeldin A (10 µg/ml) for 4 h before harvesting to determine VEGFA expression. Briefly, cells were lysed with RIPA buffer [50 mmol/L Tris–HCl (pH 7.8), 150 mmol/L NaCl, 1% Triton X-100, 0.1% SDS, 0.5% sodium deoxycholate, and 1 mmol/L EDTA] containing complete protease inhibitor cocktail. Equal amount of protein was electrophoresed on SDS-PAGE and electro transferred onto polyvinylidene difluoride (PVDF) membranes using Bio-Rad mini gel apparatus. The membranes were probed with OCT4 (Thermo Fisher Scientific, USA), SOX2 (AbCam, USA), NANOG (Thermo Fisher Scientific, USA), HIF1α (Thermo Fisher Scientific, USA) and VEGFA (Thermo Fisher Scientific, USA) and NF-ĸB (Santa Cruz Biotechnology, USA) antibodies. β-Actin (Santa Cruz Biotechnology, USA) and α-TUBULIN (Santa Cruz Biotechnology, USA) antibodies were used as loading control. Then, the blots were probed with HRP tagged secondary antibodies. Signals were detected with the ECL system (Promega, USA) and images were captured in iBright™ CL1500 Imaging System.
# [4] = tested on: CES from HIF1α transfected HCT116 cells; assay: Diameter and number of CES from HIF1α transfected HCT116 cells; assay type: cell-based, human
# Procedure: as §1
# HCT116 cells were transiently transfected with HA-HIF1α-pcDNA3 plasmid (Addgene, USA, Plasmid #18949) by using lipofectamineTM 2000 (Thermo Fisher Scientific, USA) according to the manufacturer’s instructions. After 24 h of transfection, those cells were subjected to various experiments.
# [5] = Toxicity of Orientin alone in mice, 28 days; assay type: in vivo, BALB/c mice
# Procedure: To determine the toxicity of only Orientin treatment in various doses, the mice were divided into five groups. Each group contained six animals (n = 6). Each animal of the vehicle control group (VC) was left untreated, while, mice of other four groups were administered Orientin intravenously with 1 mg/kg b.w, 3 mg/kg b.w, 5 mg/kg b.w and 10 mg/kg b.w dosage respectively for 28 days. […] All the treatments were continued for 10 days. On day 11 all the mice were sacrificed and different parameters were studied.
# Glutathione-S-transferase (GST), superoxide dismutase (SOD), Catalase (CAT), Glutathione peroxidase (GPx) and reduced glutathione (GSH) activity in hepatic tissue were assessed as described previously (Hajra et al. [2018b]). Values of all the parameters were calculated with respect to the amount of total protein present in liver homogenates.
# as §2
SMILES,percentage of apoptotic cells (HCT116 cells) [%],diameter of spheres [1],number of spheres [1],tumor volume [2],tumor tissue histopathology [2],number of blood vessels in tumor tissue [2],CD44+/CD133+ cells in tumor tissue [2],HIF1α and VEGFA expression in tumor [2],survival (Kaplan Meier) [2],number of blood vessels formed in CAM [3],"NF-ĸB expression (HIF1α, VEGFA, NF-ĸB)",diameter of spheres [4],number of spheres [4],"hepatic GSH and activity of GST, GPx, SOD and CAT ([5]; 5 mg/kg b.w Orientin i.v., 28 days)","hepatic LPO level ([5]; 5 mg/kg b.w Orientin i.v., 28 days, vs control)","histopathology of liver, heart, lung and kidney ([5]; 5 mg/kg b.w Orientin, vs control)"
"O=c1[nH]cc(F)c(=O)[nH]1 [5FU, 5-Fluorouracil, reference compound]",54.5,significantly increased,significantly increased,decrease in the tumor volume,cell numbers were found to be reduced,increasing blood vessels number,increased,increase,increased life span,increase in number of blood vessel formation,,,,,,
O=c1cc(-c2ccc(O)c(O)c2)oc2c([C@@H]3O[C@H](CO)[C@@H](O)[C@H](O)[C@H]3O)c(O)cc(O)c12 [Orientin],49.3,significant decreases,significant decreases,decrease in the tumor volume,lost their compactness,reduced,reduction,decreased,increased life span,Non-significant change,downregulated,decrease,decrease,increase,significantly decreased,no histopathological changes
